Measured values published in EP3789378A1, “PIPERIDINES OR PIPERIDONES SUBSTITUTED WITH UREA AND HETEROARYL” (Grünenthal GmbH, priority 2019, dated 2021).

Each compound was assayed against T1, h FPR2 (Homo sapiens, UniProt P25090) (assay: Agonistic activity in hFPR2-Aq-CHO cells (FLIPR Calcium 5 fluorescence assay)). Details: 11 point half log dilution, final assay concentration from 10µM.
T1 construct: expressed in transfected cells
T1 sequence (P25090 1-351): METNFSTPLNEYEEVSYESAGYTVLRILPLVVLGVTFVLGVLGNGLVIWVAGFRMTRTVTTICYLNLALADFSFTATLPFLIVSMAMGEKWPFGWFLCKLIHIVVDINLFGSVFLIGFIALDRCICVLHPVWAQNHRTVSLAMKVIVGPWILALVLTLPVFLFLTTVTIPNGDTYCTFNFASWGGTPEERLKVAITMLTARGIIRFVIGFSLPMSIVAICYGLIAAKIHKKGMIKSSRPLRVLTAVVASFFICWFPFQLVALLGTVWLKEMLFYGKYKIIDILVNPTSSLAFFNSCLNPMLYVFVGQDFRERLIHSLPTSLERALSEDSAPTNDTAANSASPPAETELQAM
Format: cell-based
Experimental: After washing, the cells are plated at 10,000 cells per well in 40 µL complete medium in a 384-well sterile clear bottom black plate and incubated in a 5% CO2 incubator at 37°C for 18 hours. Plating media is removed from each well by decanting and gentle tapping before 30 µL of 0.5X Calcium 5 dye solution (0.5X FLIPR Calcium 5 dye (Molecular devices, R8186)); HBSS; 20mM HEPES; 2.5mM Probenecid; 0.025% Pluronic F-127; pH adjusted to 7.4) is added to each well and the plate is then incubated at 37°C for 30 minutes. For the assay the plate is equilibrated at room temperature for 10 minutes before placing it in the FLIPR. Compounds are dissolved in DMSO and serially diluted over an 11 point half log (3.16 fold) dilution (2 mM to 20 nM). Compounds are then diluted 1:50 in assay buffer (HBSS; 20mM HEPES; 2.5mM Probenecid; 0.05% gelatin; 0.1% BSA; pH adjusted to 7.4) just before performing the assay. Compounds are finally added to the respective wells of the cell plate (final assay concentration 10 µM to 100 pM) using the FLIPR (e.g. FLIPR-Tetra, Molecular Devices) and fluorescence readings are captured for 5 minutes. The increase in fluorescence from the basal reading in the presence of the compounds is compared with that of the control wells (wells having no compound) to calculate the activity of the compounds. The EC50 values of the compounds can be determined using e.g. Graph pad Prism software.
Assay method for measuring agonistic activity of compounds in hFPR2-Aq-CHO cell
Cryo-vial containing 6x10^6 cells (hFPR1-Gα15-CHO or hFPR2-Aq-CHO) was thawed in a 37°C water bath. Cells were suspended in 10ml of respective complete growth media (F12(1X)HAM media (Gibco; Cat#11765); 10% HI-FBS (Gibco; Cat#10082); 0.4 mg/ml Geneticin (Gibco; Cat#10131); 0.25 mg/ml Zeocin (Invitrogen; Cat#R25001)) in a 15ml centrifuge tube. The cell viability was checked with the help of Trypan Blue dye. Upon washing the cells, those were plated in a 384-well sterile clear bottom black plate (Greiner Bioone Cat# 781091) so that, each well contained 10,000 cells in 40µl complete growth media. The plate was incubated in a 5% CO2 incubator at 37°C for 18 hours. Before assay on the next day, the cell plating media was removed from each well of the plate by decanting and gentle tapping. 30µl of 0.5X Calcium 5 dye solution (0.5X FLIPR Calcium 5 dye (Molecular devices Cat# R8186); HBSS (Invitrogen; Cat#14025); 20mM HEPES (Sigma; Cat#H0887); 2.5mM Probenecid (Sigma; Cat#P8761); 0.025% Pluronic F-127 (Sigma; Cat#P2443); pH adjusted to 7.4) was added to each well. The plate was then incubated at 37°C for 30 minutes. Following which the plate was equilibrated at room temperature for 10 minutes before placing it in a 384 well FLIPR for assay. Compounds were dissolved in DMSO and serially diluted following 11 point half log (3.16 fold) dilution with a starting concentration of 2mM (Final assay concentration 10µM). Aliquots of above mentioned each dilution was mixed with assay buffer (HBSS (Invitrogen; Cat#14025); 20mM HEPES (Sigma; Cat#H0887); 2.5mM Probenecid (Sigma; Cat#P8761); 0.05% gelatin (Sigma; Cat#G1890); 0.1% BSA (Sigma; Cat#A3059); pH adjusted to 7.4) just before performing the assay. Compounds were added to the respective wells of the assay ready cell plate with the help of the FLIPR (FLIPR Tetra) and fluorescence readings were captured for 5 minutes to measure any agonistic response of the compounds. The increase in fluorescence readings from the basal reading in presence of the compounds were compared with that of the control wells (wells having no compound) to calculate the agonistic activity of the compounds. The EC50 values of the compounds were determined using the Graph pad Prism software.

| Compound | EC50 |
| --- | --- |
| COc1ccc([C@@H]2CN(Cc3cncc(C)c3)CC[C@H]2NC(=O)Nc2ccc(Cl)cc2)nc1 (relative stereo) [Ex-64, trans-1-(4-chlorophenyl)-3-(3-(5-methoxypyridin-2-yl)-1-((5-methylpyridin-3-yl)methyl)piperidin-4-yl)urea] | 0.06 nM |
| COc1ccc([C@@H]2CN(Cc3ccc(C4CC4)nc3)CC[C@H]2NC(=O)Nc2ccc(Cl)cc2)nc1 (relative stereo) [Ex-65, trans-1-(4-chlorophenyl)-3-[1-[(6-cyclopropylpyridin-3-yl)methyl]-3-(5-methoxypyridin-2-yl)piperidin-4-yl]urea] | 0.09 nM |
| COc1ccc([C@@H]2CN(Cc3cnc(OC)nc3)CC[C@H]2NC(=O)Nc2ccc(Cl)cc2)nc1 (relative stereo) [Ex-66, trans-1-(4-chlorophenyl)-3-[3-(5-methoxypyridin-2-yl)-1-[(2-methoxypyrimidin-5-yl)methyl]piperidin-4-yl]urea] | 0.2 nM |
| COc1ccc([C@@H]2CN(Cc3ccc(C)nc3)CC[C@H]2NC(=O)Nc2ccc(Cl)cc2)nc1 (relative stereo) [Ex-67, trans-1-(4-chlorophenyl)-3-[-3-(5-methoxypyridin-2-yl)-1-[(6-methylpyridin-3-yl)methyl]piperidin-4-yl]urea] | 0.08 nM |
| COc1ccc([C@H]2CN(Cc3cncc(F)c3)CC[C@@H]2NC(=O)Nc2ccc(Cl)cc2)nc1 (relative stereo) [Ex-68, trans-(4-chlorophenyl)-3-[1-[(5-fluoropyridin-3-yl)methyl]-3-(5-methoxypyridin-2-yl)piperidin-4-yl]urea] | 0.09 nM |
| COc1ccc([C@@H]2CN(Cc3cncc(Cl)c3)CC[C@H]2NC(=O)Nc2ccc(Cl)cc2)nc1 (relative stereo) [Ex-69, trans-1-(4-chlorophenyl)-3-[1-[(5-chloropyridin-3-yl)methyl]-3-(5-methoxypyridin-2-yl)piperidin-4-yl]urea] | 0.07 nM |
| O=C(Nc1ccc(Cl)cc1)N[C@@H]1CCN(Cc2cncc(F)c2)C[C@H]1c1ccc(Cl)s1 (relative stereo) [Ex-70, trans-1-(4-chlorophenyl)-3-(3-(5-chlorothiophen-2-yl)-1-((5-fluoropyridin-3-yl)methyl)piperidin-4-yl)urea] | 2 nM |
| O=C(Nc1ccc(Cl)cc1)N[C@@H]1CCN(Cc2cncc(Cl)c2)C[C@H]1c1ccc(Cl)s1 (relative stereo) [Ex-71, trans-1-(4-chlorophenyl)-3-(1-((5-chloropyridin-3-yl)methyl)-3-(5-chlorothiophen-2-yl)piperidin-4-yl)urea] | 2 nM |
| Cc1cncc(CN2CC[C@@H](NC(=O)Nc3ccc(Cl)cc3)[C@H](c3ccc(Cl)s3)C2)c1 (relative stereo) [Ex-72, trans-1-(4-chlorophenyl)-3-(3-(5-chlorothiophen-2-yl)-1-((5-methylpyridin-3-yl)methyl)piperidin-4-yl)urea] | 2 nM |
| O=C(Nc1ccc(Cl)cc1)N[C@@H]1CCN(Cc2ccc(C3CC3)nc2)C[C@H]1c1ccc(Cl)s1 (relative stereo) [Ex-73, trans-1-(4-chlorophenyl)-3-[3-(5-chlorothiophen-2-yl)-1-[(6-cyclopropylpyridin-3-yl)methyl]piperidin-4-yl]urea] | 4 nM |
| O=C(Nc1ccc(Cl)cc1)N[C@@H]1CCN(Cc2ccc(C(F)(F)F)nc2)C[C@H]1c1ccc(Cl)s1 (relative stereo) [Ex-74, trans-1-(4-chlorophenyl)-3-[3-(5-chlorothiophen-2-yl)-1-{[6-(trifluoromethyl)pyridin-3-yl]methyl}piperidin-4-yl]urea] | 2 nM |
| COc1ncc(CN2CC[C@@H](NC(=O)Nc3ccc(Cl)cc3)[C@H](c3ccc(Cl)s3)C2)cn1 (relative stereo) [Ex-75, trans-1-(4-chlorophenyl)-3-[3-(5-chlorothiophen-2-yl)-1-[(2-methoxypyrimidin-5-yl)methyl]piperidin-4-yl]urea] | 3 nM |
| Cc1ncc(CN2CC[C@@H](NC(=O)Nc3ccc(Cl)cc3)[C@H](c3ccc(Cl)s3)C2)cn1 (relative stereo) [Ex-76, trans-1-(4-chlorophenyl)-3-[3-(5-chlorothiophen-2-yl)-1-[(2-methylpyrimidin-5-yl)methyl]piperidin-4-yl]urea] | 2 nM |
| COCCC(=O)N1CC[C@@H](NC(=O)Nc2ccc(Cl)cc2)[C@H](c2ccc(OC)cn2)C1 (relative stereo) [Ex-79, trans-1-(4-chlorophenyl)-3-[5-methoxy-1'-(3-methoxy-propionyl)-1',2',3',4',5',6'-hexahydro-[2,3']bipyridinyl-4'-yl]-urea] | 23 nM |
| COc1ccc([C@@H]2CN(C(=O)C3CCC(OC)CC3)CC[C@H]2NC(=O)Nc2ccc(Cl)cc2)nc1 (relative stereo) [Ex-81, trans-1-(4-chloro-phenyl)-3-[5-methoxy-1'-(4-methoxy-cyclohexanecarbonyl)-1',2',3',4',5',6'-hexahydro-[2,3']bipyridinyl-4'-yl]-urea] | 13 nM |
| Cc1ccc(CN2CC[C@@H](NC(=O)Nc3ccc(Cl)cc3)[C@H](c3ccc(Cl)s3)C2)cn1 (relative stereo) [Ex-87, trans-1-(4-chlorophenyl)-3-[3-(5-chlorothiophen-2-yl)-1-[(6-methylpyridin-3-yl)methyl]piperidin-4-yl]urea] | 1 nM |
| COc1ccc([C@@H]2CN(C(=O)C3CCNCC3)CC[C@H]2NC(=O)Nc2ccc(Cl)cc2)nc1 (relative stereo) [Ex-88, trans-1-(4-chloro-phenyl)-3-[5-methoxy-1'-(piperidine-4-carbonyl)-1',2',3',4',5',6'-hexahydro-[2,3']bipyridinyl-4'-yl]-urea] | 1.2 nM |
| COc1ccc([C@@H]2CN(C(=O)C3CCC(O)CC3)CC[C@H]2NC(=O)Nc2ccc(Cl)cc2)nc1 (relative stereo) [Ex-90, trans-1-(4-chloro-phenyl)-3-[1'-(4-hydroxy-cyclohexanecarbonyl)-5-methoxy-1',2',3',4',5',6'-hexahydro-[2,3']bipyridinyl-4'-yl]-urea] | 32 nM |
| COCCCN1CC[C@@H](NC(=O)Nc2ccc(Cl)cc2)[C@H](c2ccc(Cl)s2)C1 (relative stereo) [Ex-91, trans-1-(4-chloro-phenyl)-3-[3-(5-chloro-thiophen-2-yl)-1-(3-methoxy-propyl)-piperidin-4-yl]-urea] | 11 nM |
| COc1ccc([C@@H]2CN(C(=O)C3COC3)CC[C@H]2NC(=O)Nc2ccc(Cl)cc2)nc1 (relative stereo) [Ex-92, trans-1-(4-chloro-phenyl)-3-[5-methoxy-1'-(oxetane-3-carbonyl)-1',2',3',4',5',6'-hexahydro-[2,3']bipyridinyl-4'-yl]-urea] | 4 nM |

Same assay, conditions: agonistic response at 0.1µM

| Compound | activation at 0.1 µM |
| --- | --- |
| O=C(Nc1ccc(Cl)cc1)N[C@@H]1CCN(CC2CCOCC2)C[C@H]1c1ccc(Cl)s1 (relative stereo) [Ex-86, trans-1-(4-chlorophenyl)-3-(3-(5-chlorothiophen-2-yl)-1-((tetrahydro-2H-pyran-4-yl)methyl)piperidin-4-yl)urea] | 19% |
